Data on 31 compounds can be found in patent US8653096B2, “Chemokine receptor antagonists and methods of use thereof” (Millennium Pharmaceuticals, Inc., priority 2001, dated 2014).

Some results are limits rather than exact numbers.

The target in the experiment is T1, RANTES/MIP-1α chemokine receptor (CCR1) in THP-1 cell membranes (Homo sapiens, UniProt P32246).
T1 construct: Membranes were prepared from THP-1 cells (ATCC #TIB202); host or cells: THP-1 cells (membrane preparation)
T1 sequence (P32246 1-355): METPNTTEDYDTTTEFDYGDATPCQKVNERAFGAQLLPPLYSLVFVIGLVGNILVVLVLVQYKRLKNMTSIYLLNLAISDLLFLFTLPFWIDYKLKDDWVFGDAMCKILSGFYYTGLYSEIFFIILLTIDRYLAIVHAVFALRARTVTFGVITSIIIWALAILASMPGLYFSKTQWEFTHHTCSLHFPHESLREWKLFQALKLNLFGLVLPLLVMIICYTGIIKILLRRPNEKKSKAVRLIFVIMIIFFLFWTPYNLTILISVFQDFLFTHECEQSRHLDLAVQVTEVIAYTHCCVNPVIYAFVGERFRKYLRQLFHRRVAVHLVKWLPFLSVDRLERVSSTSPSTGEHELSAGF
As to the kind of experiment: Receptor binding assay: 125I-RANTES or 125I-MIP-1α binding to THP-1 cell membranes. The note with it: inhibitor concentration required for 50% inhibition of specific binding; 125I-RANTES or 125I-MIP-1α as ligand, THP-1 cell membranes; read-out: IC50.
In the case of `O=C1c2ccccc2C(=CCCN2CCC(O)(c3ccc(Cl)cc3)CC2)c2ccccc2N1Cc1ccccc1` [Example 12, 1-[3-(5-Benzyl-6,11-dihydro-6-oxo-5H-dibenz[b,e]azepin-11-ylidene)propyl]-4-(4-chlorophenyl)-piperidin-4-ol], the concentration for half-maximal inhibition (IC50) (usually the concentration that gives 50% inhibition) is less than 1000 nM.

Turning to `O=C(O)CN1C(=O)c2ccccc2C(=CCCN2CCC(O)(c3ccc(Cl)cc3)CC2)c2ccccc21` [Example 17, 1-[3-(5-Carboxymethyl-6,11-dihydro-6-oxo-5H-dibenz[b,e]azepin-11-ylidene)propyl]-4-(4-chlorophenyl)-piperidin-4-ol], the IC50 is less than 10000 nM.

As to `CCOC(=O)CN1C(=O)c2ccccc2C(=CCCN2CCC(O)(c3ccc(Cl)cc3)CC2)c2ccccc21` [Example 18, 4-(4-Chlorophenyl)-1-[3-(6,11-dihydro-5-ethoxycarbonymethyl-6-oxo-5H-dibenz[b,e]azepin-11-ylidene)propyl]piperidin-4-ol], the IC50 was less than 1000 nM.

Consider `CN1C(=O)c2ccccc2C(=CCCN2CCC(O)(c3ccc(Cl)cc3)CC2)c2ccccc21` [Example 19, 4-(4-Chlorophenyl)-1-[3-(6,11-dihydro-5-methyl-6-oxo-5H-dibenz[b,e]azepin-11-ylidene)propyl]piperidin-4-ol], for which the IC50 is less than 1000 nM.

On to `OC1(c2ccc(Cl)cc2)CCN(CCC=C2c3ccccc3C=Cc3ccccc32)CC1` [Example 21, 4-(4-Chlorophenyl)-1-[3-(5H-dibenzo[a,d]cycloheptene-5-ylidene)propyl]piperidin-4-ol], for which the IC50 is less than 1000 nM.

For the compound `COC(=O)c1ccc2c(c1)C(=CCCN1CCC(O)(c3ccc(Cl)cc3)CC1)c1ccccc1CO2` [Example 22, 4-(4-Chlorophenyl)-1-[3-(6,11-dihydro-2-methoxycarbonyldibenz[b,e]oxepin-11-ylidene)propyl]piperidin-4-ol], the IC50 was less than 1000 nM.

For the compound `CCCCOC(=O)c1ccc2c(c1)C(=CCCN1CCC(O)(c3ccc(Cl)cc3)CC1)c1ccccc1CO2` [Example 23, 1-[3-(2-Butoxycarbonyl-6,11-dihydrodibenz[b,e]oxepin-11-ylidene)propyl]-4-(4-chlorophenyl)piperidin-4-ol], the IC50 was less than 1000 nM.

As to `O=C(O)c1ccc2c(c1)C(=CCCN1CCC(O)(c3ccc(Cl)cc3)CC1)c1ccccc1CO2` [Example 24, 1-[3-(2-Carboxyl-6,11-dihydrodibenz[b,e]oxepin-11-ylidene)propyl]-4-(4-chlorophenyl)piperidin-4-ol], the half-maximal inhibitory concentration (IC50) was less than 10000 nM.

With `CN(C)C(=O)c1ccc2c(c1)C(=CCCN1CCC(O)(c3ccc(Cl)cc3)CC1)c1ccccc1CO2` [Example 25, 4-(4-Chlorophenyl)-1-[3-(6,11-dihydro-2-dimethylaminocarbonyldibenz[b,e]oxepin-11-ylidene)propyl]piperidin-4-ol], the IC50 was less than 1000 nM.

On to `OCc1ccc2c(c1)C(=CCCN1CCC(O)(c3ccc(Cl)cc3)CC1)c1ccccc1CO2` [Example 26, 4-(4-Chlorophenyl)-1-[3-(6,11-dihydro-2-hydroxymethyldibenz[b,e]oxepin-11-ylidene)propyl]piperidin-4-ol], for which the IC50 was less than 1000 nM.

For the compound `CC(C)(O)c1ccc2c(c1)C(=CCCN1CCC(O)(c3ccc(Cl)cc3)CC1)c1ccccc1CO2` [Example 27, 4-(4-Chlorophenyl)-1-[3-(6,11-dihydro-2-(1-hydroxy-1-methyl)ethyldibenz[b,e]oxepin-11-ylidene)propyl]piperidin-4-ol], the IC50 is less than 1000 nM.

For the compound `N#Cc1ccc2c(c1)C(=CCCN1CCC(O)(c3ccc(Cl)cc3)CC1)c1ccccc1CO2` [Example 28, 4-(4-Chlorophenyl)-1-[3-(2-cyano-6,11-dihydrodibenz[b,e]oxepin-11-ylidene)propyl]piperidin-4-ol], the half-maximal inhibitory concentration (IC50) was less than 1000 nM.

On to `NCc1ccc2c(c1)C(=CCCN1CCC(O)(c3ccc(Cl)cc3)CC1)c1ccccc1CO2` [Example 29, 1-[3-(2-Aminomethyl-6,11-dihydrodibenz[b,e]oxepin-11-ylidene)propyl]-4-(4-chlorophenyl)piperidin-4-ol], for which the IC50 is less than 1000 nM.

As to `O=[N+]([O-])c1ccc2c(c1)C(=CCCN1CCC(O)(c3ccc(Cl)cc3)CC1)c1ccccc1CO2` [Example 30, 4-(4-Chlorophenyl)-1-[3-(6,11-dihydro-2-nitrodibenz[b,e]oxepin-11-ylidene)propyl]piperidin-4-ol], the half-maximal inhibitory concentration (IC50) was less than 1000 nM.

In the case of `Nc1ccc2c(c1)C(=CCCN1CCC(O)(c3ccc(Cl)cc3)CC1)c1ccccc1CO2` [Example 31, 1-[3-(2-Amino-6,11-dihydrodibenz[b,e]oxepin-11-ylidene)propyl]-4-(4-chlorophenyl)piperidin-4-ol], the IC50 is less than 1000 nM.

On to `Oc1ccc2c(c1)C(=CCCN1CCC(O)(c3ccc(Cl)cc3)CC1)c1ccccc1CO2` [Example 32, 4-(4-Chlorophenyl)-1-[3-(6,11-dihydro-2-hydroxydibenz[b,e]oxepin-11-ylidene)propyl]piperidin-4-ol], for which the IC50 is less than 1000 nM.

As for `COc1ccc2c(c1)C(=CCCN1CCC(O)(c3ccc(Cl)cc3)CC1)c1ccccc1CO2` [Example 33, 4-(4-Chlorophenyl)-1-[3-(6,11-dihydro-2-methoxydibenz[b,e]oxepin-11-ylidene)propyl]piperidin-4-ol], the IC50 is less than 1000 nM.

Regarding `CCOc1ccc2c(c1)C(=CCCN1CCC(O)(c3ccc(Cl)cc3)CC1)c1ccccc1CO2` [Example 34, 4-(4-Chlorophenyl)-1-[3-(6,11-dihydro-2-ethoxydibenz[b,e]oxepin-11-ylidene)propyl]piperidin-4-ol], the half-inhibitory concentration (IC50) is less than 1000 nM.

For `OC1(c2ccc(Cl)cc2)CCN(CCC=C2c3ccccc3COc3cc(Br)ccc32)CC1` [Example 35, 1-[3-(3-Bromo-6,11-dihydrodibenz [b,e]oxepin-11-ylidene)propyl]-4-(4-chlorophenyl)piperidin-4-ol], the IC50 is less than 1000 nM.

Turning to `COC1(c2ccc(Cl)cc2)CCN(CCC=C2c3ccccc3COc3ccccc32)CC1` [Example 36, 4-(4-Chlorophenyl)-1-[3-(6,11-dihydrodibenz[b,e]oxepin-11-ylidene)propyl]-4-methoxypiperidine], the IC50 was less than 1000 nM.

Take `OC1(c2ccc(Cl)cc2)CCN(CCC=C2c3cc(Br)ccc3OCc3ccsc32)CC1` [Example 38, 1-[3-(8-Bromo-4,10-dihydrothieno[3,2-c][1]benzoxepin-10-ylidene)propyl]piperidin-4-(4-chlorophenyl)-4-ol]: the IC50 was less than 1000 nM.

On to `O=C1Nc2ccccc2C(=CCCN2CCC(O)(c3ccc(Cl)cc3)CC2)c2ccccc21` [Example 39, 4-(4-Chlorophenyl)-1-[3-(6,11-dihydro-6-oxo-5H-dibenz[b,e]azepin-11-ylidene)propyl]piperidin-4-ol], for which the 50% inhibitory concentration (IC50) was less than 10000 nM.

On to `CCN1C(=O)c2ccccc2C(=CCCN2CCC(O)(c3ccc(Cl)cc3)CC2)c2ccccc21` [Example 40, 4-(4-Chlorophenyl)-1-[3-(6,11-dihydro-5-ethyl-6-oxo-5H-dibenz[b,e]azepin-11-ylidene)propyl]piperidin-4-ol], for which the concentration for half-maximal inhibition (IC50) was less than 1000 nM.

For the compound `CCCCN1C(=O)c2ccccc2C(=CCCN2CCC(O)(c3ccc(Cl)cc3)CC2)c2ccccc21` [Example 41, 1-[3-(5-n-Butyl-6,11-dihydro-6-oxo-5H-dibenz[b,e]azepin-11-ylidene)propyl]-4-(4-chlorophenyl)-piperidin-4-ol], the half-maximal inhibitory concentration (IC50) is less than 1000 nM.

Turning to `O=C1c2ccccc2C(=CCCN2CCC(O)(c3ccc(Cl)cc3)CC2)c2ccccc2N1CCCO` [Example 42, 4-(4-Chlorophenyl)-1-[3-(6,11-dihydro-5-(3-hydroxypropyl)-6-oxo-5H-dibenz[b,e]azepin-11-ylidene)propyl]piperidin-4-ol], the IC50 is less than 1000 nM.

For `CC(C)(C)OC(=O)CN1C(=O)c2ccccc2C(=CCCN2CCC(O)(c3ccc(Cl)cc3)CC2)c2ccccc21` [Example 43, 1-[3-(5-tert-Butoxycarbonymethyl-6,11-dihydro-6-oxo-5H-dibenz[b,e]azepin-11-ylidene)propyl]-4-(4-chlorophenyl)-piperidin-4-ol], the concentration for half-maximal inhibition (IC50) was less than 10000 nM.

For the compound `O=C1Nc2ncccc2C(=CCCN2CCC(O)(c3ccc(Cl)cc3)CC2)c2ccccc21` [Example 55, 4-(4-Chlorophenyl)-1-[3-(10,11-dihydro-10-oxo-5H-pyrido[2,3-c][2]benzazepin-5-ylidene)propyl]piperidin-4-ol], the concentration for half-maximal inhibition (IC50) was less than 1000 nM.

In the case of `CN1C(=O)c2ccccc2C(=CCCN2CCC(O)(c3ccc(Cl)cc3)CC2)c2cccnc21` [Example 56, 4-(4-Chlorophenyl)-1-[3-(10,11-dihydro-11-methyl-10-oxo-5H-pyrido[2,3-c][2]benzazepin-5-ylidene)propyl]piperidin-4-ol], the half-maximal inhibitory concentration (IC50) is less than 1000 nM.

On to `COc1ccc2c(c1)C(=CCN1CCC(O)(c3ccc(Cl)cc3)CC1)c1cccnc1CO2` [Example 57, 4-(4-Chlorophenyl)-1-[3-(5,11-dihydro-7-methoxy[1]benzoxepino [2,3-b]pyridin-5-ylidene)ethyl]piperidin-4-ol], for which the IC50 was less than 10000 nM.

`COc1ccc2c(c1)C(=CCCN1CCC(O)(c3ccccc3)CC1)c1cccnc1CO2` [Example 59, 1-[3-(5,11-Dihydro-7-methoxy[1]benzoxepino[2,3-b]pyridin-5-ylidene)propyl]piperidin-4-phenyl-4-ol]: the half-inhibitory concentration (IC50) was less than 1000 nM.

With `COc1ccc2c(c1)C(=CCCN1CCC(n3c(=O)[nH]c4ccccc43)CC1)c1cccnc1CO2` [Example 67, 1-[3-(5,11-Dihydro-7-methoxy[1]benzoxepino[2,3-b]pyridin-5-ylidene)propyl]-4-(2-keto-1-benzimidazolinyl)piperidine], the concentration for half-maximal inhibition (IC50) was less than 1000 nM.
